Our source for the IC50 values is US20130165440A1, “JAK1 Inhibitors” (EXELIXIS, INC., priority 2010, published 2013).

T1 sequence (P23458 865-1154 limits assumed): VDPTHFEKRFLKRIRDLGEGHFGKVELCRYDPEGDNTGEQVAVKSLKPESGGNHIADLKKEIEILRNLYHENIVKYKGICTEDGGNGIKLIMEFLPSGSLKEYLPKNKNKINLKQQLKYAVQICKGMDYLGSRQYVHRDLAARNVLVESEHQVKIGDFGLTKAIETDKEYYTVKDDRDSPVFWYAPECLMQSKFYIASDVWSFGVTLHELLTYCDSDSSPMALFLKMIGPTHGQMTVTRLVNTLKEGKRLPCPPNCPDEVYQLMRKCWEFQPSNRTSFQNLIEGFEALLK

The test addresses T1, recombinant JAK1 enzyme (Homo sapiens, UniProt P23458).
T1 construct: 8 nM of recombinant JAK1 enzyme (Insect expressed: V866-K1155); host or cells: insect cells
In words: JAK1 Kinase Assay (luciferase-luciferin-coupled chemiluminescence, ATP consumption). Type of test: biochemical. Particulars: 8 nM JAK1 (V866-K1155), 30 μM IRS-1 peptide (Y608), 2 μM ATP, 2 hours ambient temperature, KinaseGlo; read-out: JAK1 IRS-1tide Chemilum (IC50). On the procedure:
JAK1 Kinase Assay Used to Test Compounds
JAK1 Kinase activity was measured as the percent of ATP consumed following the kinase reaction using luciferase-luciferin-coupled chemiluminescence. The reaction was conducted in white medium binding 384-well microtiter plates. The kinase reaction were initiated by combining test compounds, 8 nM of recombinant JAK1 enzyme (Insect expressed: V866-K1155), 30 μM of IRS-1 peptide (Y608) and 2 μM ATP in buffer containing 20 mM Hepes (pH 7.5), 10 mM MgCl2, 0.01% Brij, 5% glycerol and 1 mM DTT in a 20 μL volume. The reaction mixture was incubated at ambient temperature for 2 hours. Following the kinase reaction, a 20 μL aliquot of KinaseGlo was added to stop the reaction and measure remaining ATP via detection of chemiluminescence using the Envison reader. Total ATP consumption was limited to 25-60%.
For orientation: Kinase-Glo reads ATP consumption through a luciferase reaction.
In general, IC50 refers to the concentration needed to halve the response being measured. Regarding `COC(=O)c1ccc(-c2nnc(Nc3cccc(C)c3)c3ccccc23)cc1` [Compound 47], the IC50 fell in the range of 500 to 1000 nM.

With `O=C1CCCN1c1ccc(-c2nnc(Nc3cc(C(F)(F)F)cc(C(F)(F)F)c3)c3ccccc23)cc1` [Compound 48, 1-[4-(4-{[3,5-bis(trifluoromethyl)phenyl]amino}phthalazin-1-yl)phenyl]pyrrolidin-2-one], the IC50 lay within 2000 to 30000 nM.

Turning to `O=C(NCCN1CCOCC1)c1ccc(-c2nnc(Nc3cc(C(F)(F)F)cc(C(F)(F)F)c3)c3ccccc23)cc1` [Compound 49, 4-(4-{[3,5-bis(trifluoromethyl)phenyl]amino}phthalazin-1-yl)-N-(2-morpholin-4-ylethyl)benzamide], the IC50 lay within 500 to 1000 nM.

For the molecule `CC(=O)c1cccc(-c2nnc(Nc3cc(C(F)(F)F)cc(C(F)(F)F)c3)c3ccccc23)c1` [Compound 50, 1-[3-(4-{[3,5-bis(trifluoromethyl)phenyl]amino}phthalazin-1-yl)phenyl]ethanone], the IC50 lay within 2000 to 30000 nM.

As for `COC(=O)c1ccc(-c2nnc(Nc3cccc(Br)c3)c3ccccc23)cc1` [Compound 51, methyl 4-{4-[(3-bromophenyl)amino]phthalazin-1-yl}benzoate], the half-inhibitory concentration (IC50) is 150 to 500 nM.

Turning to `FC(F)(F)c1cc(Nc2nnc(-c3ccc(-c4cc[nH]n4)cc3)c3ccccc23)cc(C(F)(F)F)c1` [Compound 52, N-[3,5-bis(trifluoromethyl)phenyl]-4-[4-(1H-pyrazol-3-yl)phenyl]phthalazin-1-amine], the half-maximal inhibitory concentration (IC50) was 150 to 500 nM.

For `COC(=O)c1ccc(-c2nnc(Nc3ccc(F)c(C(F)(F)F)c3)c3ccccc23)cc1` [Compound 53, methyl 4-(4-{[4-fluoro-3-(trifluoromethyl)phenyl]amino}phthalazin-1-yl)benzoate], the half-inhibitory concentration (IC50) was in the range of 500 to 1000 nM.

In the case of `COC(=O)c1ccc(-c2nnc(Nc3cccc(C#N)c3)c3ccccc23)cc1` [Compound 54, methyl 4-{4-[(3-cyanophenyl)amino]phthalazin-1-yl}benzoate], the IC50 fell in the range of 2000 to 30000 nM.

As to `CNC(=O)c1ccc(-c2nnc(Nc3cc(C(F)(F)F)cc(C(F)(F)F)c3)c3ccccc23)cc1` [Compound 55, 4-(4-{[3,5-bis(trifluoromethyl)phenyl]amino}phthalazin-1-yl)-N-methylbenzamide], the half-inhibitory concentration (IC50) lay in the range of 150 to 500 nM.

In the case of `Cc1n[nH]c2cc(-c3nnc(Nc4cc(C(F)(F)F)cc(C(F)(F)F)c4)c4ccccc34)ccc12` [Compound 56, N-[3,5-bis(trifluoromethyl)phenyl]-4-(3-methyl-1H-indazol-6-yl)phthalazin-1-amine], the 50% inhibitory concentration (IC50) was 150 to 500 nM.

Take `COC(=O)c1ccc(-c2nnc(Nc3cccc(C(C)C)c3)c3cnccc23)cc1` [Compound 57, methyl 4-(4-{[3-(1-methylethyl)phenyl]amino}pyrido[3,4-d]pyridazin-1-yl)benzoate]: the half-maximal inhibitory concentration (IC50) fell in the range of 500 to 1000 nM.

On to `COC(=O)c1ccc(-c2nnc(Nc3cccc(C(F)(F)F)c3)c3ccccc23)cc1` [Compound 58, methyl 4-(4-{[3-(trifluoromethyl)phenyl]amino}phthalazin-1-yl)benzoate], for which the concentration for half-maximal inhibition (IC50) was ≤ 150 nM.

`COC(=O)c1ccc(-c2nnc(Nc3cc(C)cc(Br)c3)c3ccccc23)cc1` [Compound 59, methyl 4-{4-[(3-bromo-5-methylphenyl)amino]phthalazin-1-yl}benzoate]: the 50% inhibitory concentration (IC50) was 150 to 500 nM.

Consider `COC(=O)c1ccc(-c2nnc(Nc3cc(CCN(C)C)cc(C(F)(F)F)c3)c3ccccc23)cc1` [Compound 60, methyl 4-[4-({3-[2-(dimethylamino)ethyl]-5-(trifluoromethyl)phenyl}amino)phthalazin-1-yl]benzoate], for which the IC50 lay within 500 to 1000 nM.

For the molecule `Cc1cc(-c2ccc(-c3nnc(Nc4cc(C(F)(F)F)cc(C(F)(F)F)c4)c4ccccc34)cc2)n[nH]1` [Compound 61, N-[3,5-bis(trifluoromethyl)phenyl]-4-[4-(5-methyl-1H-pyrazol-3-yl)phenyl]phthalazin-1-amine], the IC50 is 500 to 1000 nM.

As to `COC(=O)c1ccc(-c2nnc(Nc3cccc(C(C)C)c3)c3ccccc23)cc1` [Compound 62, methyl 4-(4-{[3-(1-methylethyl)phenyl]amino}phthalazin-1-yl)benzoate], the 50% inhibitory concentration (IC50) is 150 to 500 nM.

Turning to `COC(=O)c1ccc(-c2nnc(Nc3cccc(N(C)C)c3)c3ccccc23)cc1` [Compound 63, methyl 4-(4-{[3-(dimethylamino)phenyl]amino}phthalazin-1-yl)benzoate], the concentration for half-maximal inhibition (IC50) lay in the range of 2000 to 30000 nM.

For the molecule `COC(=O)c1ccc(-c2nnc(Nc3cc(C(F)(F)F)cc(C(F)(F)F)c3)c3ccccc23)c(C)c1` [Compound 64, methyl 4-(4-{[3,5-bis(trifluoromethyl)phenyl]amino}phthalazin-1-yl)-3-methylbenzoate], the IC50 is 500 to 1000 nM.

For `COC(=O)c1ccc(-c2nnc(Nc3cc(C)cc(C(F)(F)F)c3)c3ccccc23)cc1` [Compound 65, methyl 4-(4-{[3-methyl-5-(trifluoromethyl)phenyl]amino}phthalazin-1-yl)benzoate], the IC50 was ≤ 150 nM.

For `COC(=O)c1ccc(-c2nnc(Nc3cc(C(F)(F)F)cc(C(F)(F)F)c3)c3ccccc23)cc1` [Compound 66, methyl 4-(4-{[3,5-bis(trifluoromethyl)phenyl]amino}phthalazin-1-yl)benzoate], the IC50 lay within 150 to 500 nM.
